Test results reported in patent US20110251379A1, “COMPOUNDS USEFUL FOR TREATING NEURODEGENERATIVE DISORDERS” (Satori Pharmaceuticals, Inc., priority 2010, published 2011).
Where two headings read alike, the source gives them in different places.

Assays:
Assay type in all cases: cell-based
Aβ-42 = experiment: MSD Human (6E10) Ab 3-PLEX elisa, conditioned media of 2B7 cells: Aβ-42; settings: for IC50: Aβ-42 (superscript c)
Protocol: (§1) Assays were conducted to determine the ability of a Compound of Formula I to modulate […], and Aβ-38.
(§2) Plates with capture antibodies were blocked for 1-2 hours at room temperature with 150 μL of the manufactures blocking reagent.
(§3) Conditioned Media: • Cultured 2B7 cells in 96 well plate with 250 uL of media per well until confluent; • Prepared serial dilutions of compounds in DMSO at 100× the final desired concentration; • Washed wells with 2B7 cells 1× with 250 uL of media; • Diluted DMSO stocks 1:100 into media: • Added 250 μL of media containing compounds (1% DMSO) to wells with 2B7 cells for 5 hours at 37° C.
(§4) Elisa Sample Prep: • Diluted conditioned media: 1 part media with 1% DMSO and 1 part blocking buffer; • 150 μL of the 250 μL of conditioned media were used.
(§5) […] CURVE SAMPLE PREP: Prepared per manufacturer's protocol (see above) • Seven point standard curve samples were prepared that contained Aβ-42, Aβ-40, and Aβ-38. The highest concentration of Aβ-42 and Aβ-3-38 was 3,000 pg/mL and the highest concentration of Aβ-40 was 10,000 pg/mL. Subsequent serial dilutions were 1:3 and the final composition of each sample was 1 part blocking buffer and 1 part cell medium containing 1% DMSO.
(§6) Overnight Sample Incubation: • Blocked plates are washed 5× with MSD wash buffer with a plate washer • 25 uL of detection antibody and blocker G reagent in MSD blocking solution is added • 25 uL of samples (1 part conditioned media containing 1% DMSO and 1 part MSD blocking buffer) are then added. • plates are incubated overnight at 4 degrees C. or 2 hours at room temp
(§7) Final Wash and Readout: • Wash wells 5× with MSD wash buffer • Added 150 μL 2×MSD read buffer • Read with MSD imager.
(§8) A-Beta peptide levels for each peptide are calculated from the standard curve using the MSD software provided with the MSD 2400 Imager. Percent vehicle values for each compound dosage were then calculated and fit to a 4 parameter curve generating IC50 values.

Aβ-40 = experiment: MSD Human (6E10) Ab 3-PLEX elisa, conditioned media of 2B7 cells: Aβ-40; settings: for IC50: Aβ-40 (superscript b); for inhibition at 20 µM / % Inh. (range): Aβ-40, 20 μM
Protocol: as §1, §2, §3, §4, §5, §6, §7, §8

Aβ-38 = experiment: MSD Human (6E10) Ab 3-PLEX elisa, conditioned media of 2B7 cells: Aβ-38
Protocol: as §1, §2, §3, §4, §5, §6, §7, §8

[1] = Homo sapiens, read-out: IC50 range
[2] = Homo sapiens, read-out: 50% reduction value
[3] = Homo sapiens, Aβ-38 (superscript a), read-out: 50% reduction value
[4] = Aβ-38 (superscript a), read-out: 50% reduction value
[5] = Aβ-38 (superscript a), read-out: IC50 range

SMILES: C[C@@H]1CC(CNC(C(=O)O)C(F)(F)F)OC2[C@H]1[C@@]1(C)CC[C@@]34C[C@@]35CC[C@H](O[C@H]3CN(C(=O)CC6CC6)CCO3)C(C)(C)[C@@H]5CCC4[C@]1(C)[C@H]2O (some centres unmarked)
- IC50 (Aβ-42; [1]): 1000 to 10000 nM
- IC50 (Aβ-40; [1]): 1000 to 10000 nM

SMILES: CC(=O)O[C@H](C(C)C)C1C[C@@H](C)[C@H]2C(O1)[C@H](O)[C@@]1(C)C3CC[C@H]4C(C)(C)[C@@H](O[C@H]5CN(C(=O)C(C)C)CCO5)CC[C@@]45C[C@@]35CC[C@]21C (some centres unmarked)
- IC50 (Aβ-42; [2]): < 1000 nM
- IC50 (Aβ-42; [1]): < 1000 nM
- IC50 (Aβ-40; [2]): < 1000 nM
- IC50 (Aβ-38; [3]): < 1000 nM
- IC50 (Aβ-38; Homo sapiens, Aβ-38 (superscript a), read-out: IC50 range): < 1000 nM

SMILES: COC(=O)NCC1C[C@@H](C)[C@H]2C(O1)[C@H](O)[C@@]1(C)C3CC[C@H]4C(C)(C)[C@@H](O)CC[C@@]45C[C@@]35CC[C@]21C (some centres unmarked)
- inhibition at 20 µM (Aβ-42; Homo sapiens, Aβ-42, 20 μM): 25 to 75%
- inhibition at 20 µM (Aβ-40; Homo sapiens): 25 to 75%
- IC50 (Aβ-38; [3]): > 10000 nM

SMILES: COC(=O)N(C)CC1C[C@@H](C)[C@H]2C(O1)[C@H](O)[C@@]1(C)C3CC[C@H]4C(C)(C)[C@@H](O)CC[C@@]45C[C@@]35CC[C@]21C (some centres unmarked)
- inhibition at 20 µM (Aβ-42; Homo sapiens, Aβ-42, 20 μM): 25 to 75%
- IC50 (Aβ-40; [2]): > 10000 nM
- IC50 (Aβ-38; [3]): 1000 to 10000 nM

SMILES: C[C@@H]1CC(CNC(=O)N(C)C)OC2[C@H]1[C@@]1(C)CC[C@@]34C[C@@]35CC[C@H](O)C(C)(C)[C@@H]5CCC4[C@]1(C)[C@H]2O (some centres unmarked)
- inhibition at 20 µM (Aβ-42; Homo sapiens, Aβ-42, 20 μM): < 25%
- inhibition at 20 µM (Aβ-40; Homo sapiens): 25 to 75%
- IC50 (Aβ-38; [3]): > 10000 nM

SMILES: C[C@@H]1CC(CN(C)C(=O)N(C)C)OC2[C@H]1[C@@]1(C)CC[C@@]34C[C@@]35CC[C@H](O)C(C)(C)[C@@H]5CCC4[C@]1(C)[C@H]2O (some centres unmarked)
- inhibition at 20 µM (Aβ-42; Homo sapiens, Aβ-42, 20 μM): 25 to 75%
- inhibition at 20 µM (Aβ-40; Homo sapiens): 25 to 75%
- IC50 (Aβ-38; [3]): 1000 to 10000 nM

SMILES: CC1CC(C(OC(=O)C2CC2)C(C)(C)O)OC2C1C1(C)CCC34CC35CCC(OC3CN(C6COC6)CCO3)C(C)(C)C5CCC4C1(C)C2O (centres unmarked)
- IC50 (Aβ-42; read-out: 50% reduction value): 1000 to 10000 nM
- IC50 (Aβ-40; read-out: 50% reduction value): 1000 to 10000 nM
- IC50 (Aβ-38; [4]): 1000 to 10000 nM
- IC50 (Aβ-38; [5]): < 1000 nM

SMILES: CC1CC(C(OC(=O)C2CCOC2)C(C)(C)O)OC2C1C1(C)CCC34CC35CCC(OC3CN(C6COC6)CCO3)C(C)(C)C5CCC4C1(C)C2O (centres unmarked)
- IC50 (Aβ-42; read-out: 50% reduction value): 1000 to 10000 nM
- IC50 (Aβ-40; read-out: 50% reduction value): 1000 to 10000 nM
- IC50 (Aβ-38; [4]): 1000 to 10000 nM
- IC50 (Aβ-38; [5]): < 1000 nM

SMILES: CC(C)CC(=O)OC(C1CC(C)C2C(O1)C(O)C1(C)C3CCC4C(C)(C)C(OC5CN(C6COC6)CCO5)CCC45CC35CCC21C)C(C)(C)O (centres unmarked)
- IC50 (Aβ-42; read-out: 50% reduction value): 1000 to 10000 nM
- IC50 (Aβ-42; read-out: IC50 range): 1000 to 10000 nM
- IC50 (Aβ-40; read-out: 50% reduction value): 1000 to 10000 nM
- IC50 (Aβ-40; read-out: IC50 range): 1000 to 10000 nM
- IC50 range (nM) (Aβ-38; Aβ-38 (superscript a)): A- B
- IC50 (Aβ-38; [4]): 1000 to 10000 nM

SMILES: CC1CC(C(OC(=O)CC2CC2)C(C)(C)O)OC2C1C1(C)CCC34CC35CCC(OC3CN(C6COC6)CCO3)C(C)(C)C5CCC4C1(C)C2O (centres unmarked)
- IC50 (Aβ-42; read-out: 50% reduction value): < 1000 nM
- IC50 (Aβ-42; read-out: IC50 range): < 1000 nM
- IC50 (Aβ-40; read-out: 50% reduction value): 1000 to 10000 nM
- IC50 (Aβ-40; read-out: IC50 range): 1000 to 10000 nM
- IC50 (Aβ-38; [4]): < 1000 nM
- IC50 (Aβ-38; [5]): < 1000 nM

SMILES: CCC1CC(C)C2C(O1)C(O)C1(C)C3CCC4C(C)(C)C(O)CCC45CC35CCC21C (centres unmarked)
- % Inh. (range) (Aβ-42; Aβ-42, 20 μM): F (% inhibition of <25%)
- % Inh. (range) (Aβ-40): E (% inhibition of 25-75%)
- % Inh. (range) (Aβ-38; Aβ-38, 20 μM): E (% inhibition of 25-75%)

SMILES: CC1CC(C2OCC(=O)OC2(C)C)OC2C1C1(C)CCC34CC35CCC(OC3CN(C6COC6)CCO3)C(C)(C)C5CCC4C1(C)C2O (centres unmarked)
- IC50 (Aβ-42; read-out: 50% reduction value): 1000 to 10000 nM
- IC50 (Aβ-40; read-out: 50% reduction value): 1000 to 10000 nM
- IC50 (Aβ-38; [4]): 1000 to 10000 nM

SMILES: CC1CC(C(OC(=O)C2CCOCC2)C(C)(C)O)OC2C1C1(C)CCC34CC35CCC(OC3CN(C6COC6)CCO3)C(C)(C)C5CCC4C1(C)C2O (centres unmarked)
- IC50 (Aβ-42; read-out: 50% reduction value): < 1000 nM
- IC50 (Aβ-40; read-out: 50% reduction value): 1000 to 10000 nM
- IC50 (Aβ-40; read-out: IC50 range): 1000 to 10000 nM
- IC50 (Aβ-38; [4]): < 1000 nM
- IC50 (Aβ-38; [5]): < 1000 nM

SMILES: COC1C2OC(C(OC(=O)C3CC3)C(C)(C)O)CC(C)C2C2(C)CCC34CC35CCC(OC3CNCCO3)C(C)(C)C5CCC4C12C (centres unmarked)
- IC50 (Aβ-42; read-out: 50% reduction value): 1000 to 10000 nM
- % Inh. (range) (Aβ-40): E^b (20 μM) (% inhibition of 25-75%)
- IC50 (Aβ-38; [4]): 1000 to 10000 nM
